The text below walks through data of US8653092B2, “Tetrahydro-pyrido-pyrimidine derivatives” (Novartis AG, priority 2010, dated 2014).

Test [1] addresses PI3K alpha (Homo sapiens (Human), UniProt P42336). Kind of test: Enzymatic PI3K alpha isoform inhibition (lipid kinase, Kinase-Glo luminescence). In kind it is biochemical. The conditions noted are these: enzymatic assay. A general note: Kinase-Glo measures the ATP left after a reaction by luminescence.
Test [2] has as its target PI3K delta (Homo sapiens (Human), UniProt O00329). The test can be described thus: Enzymatic PI3K delta isoform inhibition (lipid kinase, Kinase-Glo luminescence). The following applies: enzymatic assay. Type of test: biochemical.

PI3K delta, sequence (O00329 other isoform, or with tags, fused parts or gaps linker GGGGGG): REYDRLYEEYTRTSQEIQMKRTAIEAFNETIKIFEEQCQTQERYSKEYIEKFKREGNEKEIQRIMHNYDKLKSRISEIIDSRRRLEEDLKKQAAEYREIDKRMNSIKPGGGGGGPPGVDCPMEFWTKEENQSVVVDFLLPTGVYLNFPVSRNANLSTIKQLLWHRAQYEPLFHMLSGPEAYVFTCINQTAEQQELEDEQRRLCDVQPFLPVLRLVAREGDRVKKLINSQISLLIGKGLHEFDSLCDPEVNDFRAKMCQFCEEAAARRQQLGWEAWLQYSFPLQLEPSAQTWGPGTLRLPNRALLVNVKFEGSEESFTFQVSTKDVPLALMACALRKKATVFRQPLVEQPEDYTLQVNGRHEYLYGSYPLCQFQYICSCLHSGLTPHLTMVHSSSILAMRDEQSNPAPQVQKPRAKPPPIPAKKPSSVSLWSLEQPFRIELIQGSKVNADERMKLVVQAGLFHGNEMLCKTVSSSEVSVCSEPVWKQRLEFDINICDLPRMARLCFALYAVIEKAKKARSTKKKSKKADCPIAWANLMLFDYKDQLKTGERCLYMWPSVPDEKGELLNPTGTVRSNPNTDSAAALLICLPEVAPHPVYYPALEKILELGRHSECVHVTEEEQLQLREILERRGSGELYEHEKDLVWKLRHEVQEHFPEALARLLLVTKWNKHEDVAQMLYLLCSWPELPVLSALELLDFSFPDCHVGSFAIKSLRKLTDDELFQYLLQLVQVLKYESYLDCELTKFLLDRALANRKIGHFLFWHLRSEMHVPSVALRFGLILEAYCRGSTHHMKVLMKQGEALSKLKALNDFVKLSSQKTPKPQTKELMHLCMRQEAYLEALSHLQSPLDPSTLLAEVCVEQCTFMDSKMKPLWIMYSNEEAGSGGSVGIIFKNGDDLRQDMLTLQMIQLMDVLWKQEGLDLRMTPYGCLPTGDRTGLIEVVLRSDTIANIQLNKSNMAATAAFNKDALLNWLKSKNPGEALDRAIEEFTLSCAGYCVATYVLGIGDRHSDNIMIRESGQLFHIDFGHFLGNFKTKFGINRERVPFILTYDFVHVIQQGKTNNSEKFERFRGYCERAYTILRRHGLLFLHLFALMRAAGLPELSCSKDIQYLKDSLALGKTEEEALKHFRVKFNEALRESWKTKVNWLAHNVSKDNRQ
PI3K alpha, sequence (P42336 other isoform, or with tags, fused parts or gaps): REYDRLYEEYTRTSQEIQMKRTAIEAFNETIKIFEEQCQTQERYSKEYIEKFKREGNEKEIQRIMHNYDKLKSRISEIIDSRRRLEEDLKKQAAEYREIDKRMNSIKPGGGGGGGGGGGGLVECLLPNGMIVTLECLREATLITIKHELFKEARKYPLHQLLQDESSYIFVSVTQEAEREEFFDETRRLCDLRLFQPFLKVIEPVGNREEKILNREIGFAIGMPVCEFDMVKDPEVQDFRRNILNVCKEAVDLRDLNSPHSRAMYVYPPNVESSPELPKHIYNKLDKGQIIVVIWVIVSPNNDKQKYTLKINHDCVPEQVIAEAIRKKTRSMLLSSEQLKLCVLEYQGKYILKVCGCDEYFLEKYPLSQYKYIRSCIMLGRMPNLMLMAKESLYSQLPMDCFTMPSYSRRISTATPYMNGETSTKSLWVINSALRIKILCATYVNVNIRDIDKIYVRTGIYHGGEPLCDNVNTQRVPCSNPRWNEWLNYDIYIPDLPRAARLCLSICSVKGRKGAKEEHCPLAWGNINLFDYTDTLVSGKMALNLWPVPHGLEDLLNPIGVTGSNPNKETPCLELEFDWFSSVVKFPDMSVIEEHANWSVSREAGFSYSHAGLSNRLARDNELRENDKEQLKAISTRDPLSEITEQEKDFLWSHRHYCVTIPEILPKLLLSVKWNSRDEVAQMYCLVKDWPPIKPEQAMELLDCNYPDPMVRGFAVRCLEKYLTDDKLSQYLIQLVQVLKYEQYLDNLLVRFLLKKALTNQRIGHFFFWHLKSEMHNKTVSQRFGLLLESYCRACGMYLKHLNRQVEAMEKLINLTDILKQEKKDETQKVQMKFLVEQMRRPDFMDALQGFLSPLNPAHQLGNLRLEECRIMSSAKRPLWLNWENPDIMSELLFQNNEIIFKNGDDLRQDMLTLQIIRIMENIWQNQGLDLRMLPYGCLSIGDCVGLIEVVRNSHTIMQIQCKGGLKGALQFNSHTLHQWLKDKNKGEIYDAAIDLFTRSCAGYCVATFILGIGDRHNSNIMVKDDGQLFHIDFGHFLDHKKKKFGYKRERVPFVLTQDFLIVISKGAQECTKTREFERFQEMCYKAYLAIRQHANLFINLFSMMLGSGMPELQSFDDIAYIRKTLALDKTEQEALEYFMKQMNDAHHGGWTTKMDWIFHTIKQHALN

As for `COc1ncc(N2CCc3ncnc(O[C@H]4CCN(C(=O)C5CCS(=O)(=O)CC5)C4)c3C2)cc1C(F)(F)F` [Example 39, (1,1-Dioxo-hexahydro-1lambda*6*-thiopyran-4-yl)-{(S)-3-[6-(6-methoxy-5-trifluoromethyl-pyridin-3-yl)-5,6,7,8-tetrahydro-pyrido[4,3-d]pyrimidin-4-yloxy]-pyrrolidin-1-yl}-methanone], the IC50 in test [1] is 434 nM; in test [2], 9 nM.

As for `COc1ncc(N2CCc3ncnc(O[C@H]4CCN(C(=O)C5CNC(=O)C5)C4)c3C2)cc1C(F)(F)F` (stereo partly drawn) [Example 43, 4-{(S)-3-[6-(6-Methoxy-5-trifluoromethyl-pyridin-3-yl)-5,6,7,8-tetrahydro-pyrido[4,3-d]pyrimidin-4-yloxy]-pyrrolidine-1-carbonyl}-pyrrolidin-2-one], the IC50 in test [1] was 728 nM; in test [2], 16 nM.

Take `COc1ncc(N2CCc3ncnc(N[C@H]4CCN(C(=O)C5CCOCC5)C4)c3C2)cc1C#N` [Example 69, 2-Methoxy-5-{4-[(S)-1-(tetrahydro-pyran-4-carbonyl)-pyrrolidin-3-ylamino]-7,8-dihydro-5H-pyrido[4,3-d]pyrimidin-6-yl}-nicotinonitrile]: the IC50 in test [1] came to 56 nM; in test [2], 3 nM.

On to `COc1ncc(N2CCc3ncnc(O[C@H]4CCN(C(=O)CC(C)(C)C)C4)c3C2)cc1C(F)(F)F` [Example 62, 1-{(S)-3-[6-(6-Methoxy-5-trifluoromethyl-pyridin-3-yl)-5,6,7,8-tetrahydro-pyrido[4,3-d]pyrimidin-4-yloxy]-pyrrolidin-1-yl}-3,3-dimethyl-butan-1-one], for which the figures for the IC50 in test [1] and in test [2] were 489 nM and 23 nM, respectively.

Turning to `COc1ncc(N2CCc3ncnc(N[C@H]4CCN(C(=O)c5cnco5)C4)c3C2)cc1C(F)(F)F` [Example 72, {(S)-3-[6-(6-Methoxy-5-trifluoromethyl-pyridin-3-yl)-5,6,7,8-tetrahydro-pyrido[4,3-d]pyrimidin-4-ylamino]-pyrrolidin-1-yl}-oxazol-5-yl-methanone], the results for the IC50 in test [1] and in test [2] were 93 nM and 4 nM, respectively.

Turning to `COc1ncc(N2CCc3ncnc(O[C@H]4CCN(C(=O)c5cocn5)C4)c3C2)cc1C(F)(F)F` [Example 91, {(S)-3-[6-(6-methoxy-5-trifluoromethyl-pyridin-3-yl)-5,6,7,8-tetrahydro-pyrido[4,3-d]pyrimidin-4-yloxy]-pyrrolidin-1-yl}-oxazol-4-yl-methanone], the results for the IC50 in test [1] and in test [2] were 924 nM and 11 nM, respectively.

`COc1ncc(N2CCc3ncnc(O[C@H]4CCN(C(=O)c5cn[nH]c5)C4)c3C2)cc1C(F)(F)F` [Example 49, {(S)-3-[6-(6-Methoxy-5-trifluoromethyl-pyridin-3-yl)-5,6,7,8-tetrahydro-pyrido[4,3-d]pyrimidin-4-yloxy]-pyrrolidin-1-yl}-(1H-pyrazol-4-yl)-methanone]: the values for the IC50 in test [1] and in test [2] were 388 nM and 34 nM, respectively.

As to `COc1ncc(N2CCc3ncnc(O[C@H]4CCN(C(=O)c5oc(C)nc5C)C4)c3C2)cc1C` [Example 10, (2,4-Dimethyl-oxazol-5-yl)-{(S)-3-[6-(6-methoxy-5-methyl-pyridin-3-yl)-5,6,7,8-tetrahydro-pyrido[4,3-d]pyrimidin-4-yloxy]-pyrrolidin-1-yl}-methanone], the values for the half-inhibitory concentration (IC50) in test [1] and in test [2] were 668 nM and 9 nM, respectively.

In the case of `COc1cc(N2CCc3ncnc(O[C@H]4CCN(C(=O)c5cocn5)C4)c3C2)cnc1OC` [Example 21, {(S)-3-[6-(5,6-Dimethoxy-pyridin-3-yl)-5,6,7,8-tetrahydro-pyrido[4,3-d]pyrimidin-4-yloxy]-pyrrolidin-1-yl}-oxazol-4-yl-methanone], the IC50 stood at 320 nM in test [1] and 8 nM in test [2].

Regarding `COCC(=O)N1CC[C@H](Oc2ncnc3c2CN(c2cnc(OC)c(C#N)c2)CC3)C1` [Example 8, 2-Methoxy-5-{4-[(S)-1-(2-methoxy-acetyl)-pyrrolidin-3-yloxy]-7,8-dihydro-5H-pyrido[4,3-d]pyrimidin-6-yl}-nicotinonitrile], the IC50 stood at 2490 nM in test [1] and 27 nM in test [2].

As to `COc1ncc(N2CCc3ncnc(O[C@H]4CCN(C(=O)c5ocnc5C)C4)c3C2)cc1C` [Example 18, {(S)-3-[6-(6-Methoxy-5-methyl-pyridin-3-yl)-5,6,7,8-tetrahydro-pyrido[4,3-d]pyrimidin-4-yloxy]-pyrrolidin-1-yl}-(4-methyl-oxazol-5-yl)-methanone], the values for the IC50 in test [1] and in test [2] were 871 nM and 33 nM, respectively.

As to `COc1ncc(N2CCc3ncnc(O[C@H]4CCN(C(=O)C5CCOCC5)C4)c3C2)c(OC)n1` [Example 2, {(S)-3-[6-(2,4-Dimethoxy-pyrimidin-5-yl)-5,6,7,8-tetrahydro-pyrido[4,3-d]pyrimidin-4-yloxy]-pyrrolidin-1-yl}-(tetrahydro-pyran-4-yl)-methanone], the IC50 came to 3390 nM in test [1] and 9 nM in test [2].

Regarding `COc1ncc(N2CCc3ncnc(O[C@H]4CCN(C(=O)c5nnc(C)o5)C4)c3C2)cc1C(F)(F)F` [Example 51, {(S)-3-[6-(6-Methoxy-5-trifluoromethyl-pyridin-3-yl)-5,6,7,8-tetrahydro-pyrido[4,3-d]pyrimidin-4-yloxy]-pyrrolidin-1-yl}-(5-methyl-[1,3,4]oxadiazol-2-yl)-methanone], the half-maximal inhibitory concentration (IC50) is 912 nM in test [1] and 44 nM in test [2].

As for `COc1ncc(N2CCc3ncnc(O[C@H]4CCN(C(=O)c5oc(C)nc5C)C4)c3C2)cc1C(F)(F)F` [Example 40, (2,4-Dimethyl-oxazol-5-yl)-{(S)-3-[6-(6-methoxy-5-trifluoromethyl-pyridin-3-yl)-5,6,7,8-tetrahydro-pyrido[4,3-d]pyrimidin-4-yloxy]-pyrrolidin-1-yl}-methanone], the IC50 stood at 260 nM in test [1] and 6 nM in test [2].

As for `COc1ncc(N2CCc3ncnc(O[C@H]4CCN(C(=O)c5cnn(C)c5)C4)c3C2)cc1C#N` [Example 36, 2-Methoxy-5-{4-[(S)-1-(1-methyl-1H-pyrazole-4-carbonyl)-pyrrolidin-3-yloxy]-7,8-dihydro-5H-pyrido[4,3-d]pyrimidin-6-yl}-nicotinonitrile], the IC50 in test [1] came out at 4100 nM; in test [2], 25 nM.

On to `COc1ncc(N2CCc3ncnc(O[C@H]4CCN(C(=O)c5cccnc5)C4)c3C2)cc1C(F)(F)F` [Example 44, {(S)-3-[6-(6-Methoxy-5-trifluoromethyl-pyridin-3-yl)-5,6,7,8-tetrahydro-pyrido[4,3-d]pyrimidin-4-yloxy]-pyrrolidin-1-yl}-pyridin-3-yl-methanone], for which the results for the IC50 in test [1] and in test [2] were 1190 nM and 16 nM, respectively.

Take `COc1ncc(N2CCc3ncnc(O[C@H]4CCN(C(=O)c5cncn5C)C4)c3C2)cc1C(F)(F)F` [Example 93, {(S)-3-[6-(6-Methoxy-5-trifluoromethyl-pyridin-3-yl)-5,6,7,8-tetrahydro-pyrido[4,3-d]pyrimidin-4-yloxy]-pyrrolidin-1-yl}-(3-methyl-3H-imidazol-4-yl)-methanone]: the figures for the IC50 in test [1] and in test [2] were 872 nM and 24 nM, respectively.

Regarding `COc1ncc(N2CCc3ncnc(N[C@H]4CCN(C(=O)C5CCN(C(C)=O)CC5)C4)c3C2)cc1C(F)(F)F` [Example 70, 1-(4-{(S)-3-[6-(6-methoxy-5-trifluoromethyl-pyridin-3-yl)-5,6,7,8-tetrahydro-pyrido[4,3-d]pyrimidin-4-ylamino]-pyrrolidine-1-carbonyl}-piperidin-1-yl)-ethanone], the results for the IC50 in test [1] and in test [2] were 121 nM and 6 nM, respectively.

As for `COc1ncc(N2CCc3ncnc(O[C@H]4CCN(C(=O)c5ccnn5C)C4)c3C2)cc1C(F)(F)F` [Example 42, {(S)-3-[6-(6-Methoxy-5-trifluoromethyl-pyridin-3-yl)-5,6,7,8-tetrahydro-pyrido[4,3-d]pyrimidin-4-yloxy]-pyrrolidin-1-yl}-(2-methyl-2H-pyrazol-3-yl)-methanone], the figures for the 50% inhibitory concentration (IC50) in test [1] and in test [2] were 863 nM and 13 nM, respectively.

As to `COc1ncc(N2CCc3ncnc(O[C@H]4CCN(C(=O)C5CCOCC5)C4)c3C2)cn1` [Example 59, {(S)-3-[6-(2-Methoxy-pyrimidin-5-yl)-5,6,7,8-tetrahydro-pyrido[4,3-d]pyrimidin-4-yloxy]-pyrrolidin-1-yl}-(tetrahydro-pyran-4-yl)-methanone], the IC50 in test [1] was 9100 nM; in test [2], 28 nM.

On to `COc1ncc(N2CCc3ncnc(O[C@H]4CCN(C(=O)c5c[nH]cn5)C4)c3C2)cc1C(F)(F)F` [Example 45, (1H-Imidazol-4-yl)-{(S)-3-[6-(6-methoxy-5-trifluoromethyl-pyridin-3-yl)-5,6,7,8-tetrahydro-pyrido[4,3-d]pyrimidin-4-yloxy]-pyrrolidin-1-yl}-methanone], for which the IC50 in test [1] turned out to be 860 nM; in test [2], 18 nM.

For the compound `COc1ncc(N2CCc3ncnc(O[C@H]4CCN(C(=O)c5cscn5)C4)c3C2)cc1C(F)(F)F` [Example 55, {(S)-3-[6-(6-Methoxy-5-trifluoromethyl-pyridin-3-yl)-5,6,7,8-tetrahydro-pyrido[4,3-d]pyrimidin-4-yloxy]-pyrrolidin-1-yl}-thiazol-4-yl-methanone], the IC50 was 661 nM in test [1] and 5 nM in test [2].

For `CCC(=O)N1CC[C@H](Oc2ncnc3c2CN(c2cnc(OC)c(C(F)(F)F)c2)CC3)C1` [Example 63, 1-{(S)-3-[6-(6-Methoxy-5-trifluoromethyl-pyridin-3-yl)-5,6,7,8-tetrahydro-pyrido[4,3-d]pyrimidin-4-yloxy]-pyrrolidin-1-yl}-propan-1-one], the IC50 in test [1] is 791 nM; in test [2], 51 nM.

With `COc1ncc(N2CCc3ncnc(O[C@H]4CCN(C(=O)N(C)CCO)C4)c3C2)cc1C(F)(F)F` [Example 88, (S)-3-[6-(6-Methoxy-5-trifluoromethyl-pyridin-3-yl)-5,6,7,8-tetrahydro-pyrido[4,3-d]pyrimidin-4-yloxy]-pyrrolidine-1-carboxylic acid (2-hydroxy-ethyl)-methyl-amide], the half-inhibitory concentration (IC50) worked out at 1340 nM in test [1] and 34 nM in test [2].

As a reminder, the IC50 is the point on the concentration scale where inhibition reaches its midpoint.
